{"source": "patent US20170313665A1", "about": "“HYDROXYALKYL-SUBSTITUTED PHENYLTRIAZOLE DERIVATIVES AND USES THEREOF” (BAYER PHARMA AKTIENGESELLSCHAFT, priority 2014, published 2017)", "key": {"Wistar rats": {"tested_on": "Wistar rats", "assay": "Diuresis investigations in conscious rats kept in metabolism cages", "type": "in vivo, rat", "description": "Wistar rats (220-450 g body weight) are kept with free access to feed (Altromin) and drinking water. During the experiment, the animals are kept with free access to drinking water for 4 to 8 or up to 24 hours individually in metabolism cages suitable for rats of this weight class (Tecniplast Deutschland GmbH, D-82383 Hohenpeiβenberg). At the beginning of the experiment, the animals are administered the test substance in a volume of 1 to 3 ml/kg body weight of a suitable solvent by means of gavage into the stomach. Control animals only receive solvent. Controls and substance tests are carried out in parallel on the same day. Control groups and substance-dose groups each consist of 4 to 8 animals. During the experiment, the urine excreted by the animals is collected continuously in a receiver at the base of the cage. The volume of urine per time unit is determined separately for each animal, and the concentration of urinary electrolytes is measured by standard methods of flame photometry. Before the beginning of the experiment, the body weight of the individual animals is determined."}, "human V1a receptor": {"target": "T1, human V1a receptor (Homo sapiens, UniProt P37288)", "T1 construct": "expressed in transfected cells; host or cells: CHO K1 (ATCC), also stably transfected with a modified aequorin", "T1 sequence (P37288 whole entry)": "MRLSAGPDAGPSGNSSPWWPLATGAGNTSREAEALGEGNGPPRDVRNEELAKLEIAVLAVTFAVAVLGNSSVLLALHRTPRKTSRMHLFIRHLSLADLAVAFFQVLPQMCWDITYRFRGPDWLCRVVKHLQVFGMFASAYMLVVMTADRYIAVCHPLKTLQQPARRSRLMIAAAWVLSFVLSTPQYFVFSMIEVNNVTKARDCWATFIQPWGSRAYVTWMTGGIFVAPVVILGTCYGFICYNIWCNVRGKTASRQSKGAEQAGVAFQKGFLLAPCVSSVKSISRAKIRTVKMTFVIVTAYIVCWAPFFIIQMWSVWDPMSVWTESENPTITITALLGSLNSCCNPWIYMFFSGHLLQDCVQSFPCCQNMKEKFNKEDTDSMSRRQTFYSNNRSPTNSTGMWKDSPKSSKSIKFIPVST", "assay": "Cellular in vitro assay for vasopressin receptor activity, V1a receptor cell line (aequorin luminescence)", "type": "cell-based", "conditions": "CHO cell line transfected with human V1a receptor; [Arg8]-vasopressin at EC50; read-out: IC50 hV1a", "description": "The identification of agonists and antagonists of the V1a and V2 vasopressin receptors from humans, rats and dogs as well as the quantification of the activity of the compounds of the invention is carried out using recombinant cell lines. These cell lines originally derive from a hamster's ovary epithelial cell (Chinese Hamster Ovary, CHO K1, ATCC: American Type Culture Collection, Manassas, Va. 20108, USA). The test cell lines constitutively express the human, rat or dog V1a or V2 receptors. […] The resulting vasopressin receptor cells react to stimulation of the recombinantly expressed V1a receptors by intracellular release of calcium ions, which can be quantified by the resulting photoprotein luminescence. […] The bioluminescence of the cell lines is detected using a suitable luminometer [Milligan G, Marshall F, Rees S, Trends in Pharmacological Sciences 17, 235-237 (1996)].\nOn the day before the assay, the cells are plated out in culture medium (DMEM/F12, 2% FCS, 2 mM glutamine, 10 mM HEPES, 5 μg/ml coelenterazine) in 384-well microtiter plates and kept in a cell incubator (96% humidity, 5% v/v CO2, 37° C.). […] The resulting light signal is measured immediately in the luminometer. […]"}, "[1]": {"conditions": "dosage p.o. 0.3 mg/kg, 0.3 mg/kg"}}, "data": [{"smiles": "COc1ccccc1-n1nc(Cn2nc(-c3ccc(Cl)cc3)n(C[C@H](O)C(F)(F)F)c2=O)nc1C(C)O", "note": "(single isomer, unassigned) [Example 11]", "values": [{"measurement": "Urinary volume [% vs. control = 100%]", "setting": "Wistar rats; [1]", "result": 159, "unit": "% vs. control = 100%"}, {"measurement": "Urinary volume [% vs. control = 100%]", "setting": "Wistar rats; dosage p.o. 3.0 mg/kg, 3 mg/kg", "result": 443, "unit": "% vs. control = 100%"}]}, {"smiles": "COc1ccccc1-n1nc(Cn2nc(-c3ccc(Cl)cc3)n(C[C@H](O)C(F)(F)F)c2=O)nc1C(C)O", "note": "(single isomer, unassigned) [Example 12]", "values": [{"measurement": "Urinary volume [% vs. control = 100%]", "setting": "Wistar rats; [1]", "result": 96, "unit": "% vs. control = 100%"}, {"measurement": "Urinary volume [% vs. control = 100%]", "setting": "Wistar rats; dosage p.o. 3.0 mg/kg, 3 mg/kg", "result": 323, "unit": "% vs. control = 100%"}]}, {"smiles": "CC(O)c1nc(Cn2nc(-c3ccc(Cl)cc3)n(C[C@H](O)C(F)(F)F)c2=O)nn1-c1cc(F)cc(Cl)c1", "note": "(single isomer, unassigned) [Example 14]", "values": [{"measurement": "Urinary volume [% vs. control = 100%]", "setting": "Wistar rats; dosage p.o. 1.0 mg/kg", "result": 753, "unit": "% vs. control = 100%"}]}, {"smiles": "CC(O)c1nc(Cn2nc(-c3ccc(Cl)cc3)n(C[C@H](O)C(F)(F)F)c2=O)nn1-c1cc(F)cc(Cl)c1", "note": "(single isomer, unassigned) [Example 15]", "values": [{"measurement": "Urinary volume [% vs. control = 100%]", "setting": "Wistar rats; dosage p.o. 0.3 mg/kg", "result": 412, "unit": "% vs. control = 100%"}, {"measurement": "Urinary volume [% vs. control = 100%]", "setting": "Wistar rats; dosage p.o. 3.0 mg/kg", "result": 1085, "unit": "% vs. control = 100%"}]}, {"smiles": "CC(O)c1nc(Cn2nc(-c3ccc(Cl)cc3)n(C[C@H](O)C(F)(F)F)c2=O)nn1-c1cc(F)ccc1Cl", "note": "(single isomer, unassigned) [Example 59]", "values": [{"measurement": "IC50", "setting": "human V1a receptor", "result": 0.5, "unit": "nM"}]}, {"smiles": "CC(O)c1nc(Cn2nc(-c3ccc(Cl)cc3)n(C[C@H](O)C(F)(F)F)c2=O)nn1-c1cc(F)ccc1Cl", "note": "(single isomer, unassigned) [Example 60]", "values": [{"measurement": "IC50", "setting": "human V1a receptor", "result": 0.5, "unit": "nM"}]}, {"smiles": "C[C@H](O)c1nc(Cn2nc(-c3ccc(Cl)cc3)n(C[C@H](O)C(F)(F)F)c2=O)nn1-c1cccc(F)c1", "note": "[Example 76, 5-(4-Chlorophenyl)-2-({1-(3-fluorophenyl)-5-[(1 S)-1-hydroxyethyl]-1H-1,2,4-triazol-3-yl}methyl)-4-[(2S)-3,3,3-trifluoro-2-hydroxypropyl]-2,4-dihydro-3H-1,2,4-triazol-3-one]", "values": [{"measurement": "Urinary volume [% vs. control = 100%]", "setting": "Wistar rats; dosage p.o. 3.0 mg/kg", "result": 1257, "unit": "% vs. control = 100%"}]}, {"smiles": "C[C@H](O)c1nc(Cn2nc(-c3ccc(Cl)cc3)n(C[C@H](O)C(F)(F)F)c2=O)nn1-c1cccc(Cl)c1", "note": "[Example 79, 5-(4-Chlorophenyl)-2-({1-(3-chlorophenyl)-5-[(1S)-1-hydroxyethyl]-1H-1,2,4-triazol-3-yl}methyl)-4-[(2S)-3,3,3-trifluoro-2-hydroxypropyl]-2,4-dihydro-3H-1,2,4-triazol-3-one]", "values": [{"measurement": "Urinary volume [% vs. control = 100%]", "setting": "Wistar rats; dosage p.o. 3.0 mg/kg", "result": 1312, "unit": "% vs. control = 100%"}]}, {"smiles": "C[C@@H](O)c1nc(Cn2nc(-c3ccc(Cl)cc3)n(C[C@H](O)C(F)(F)F)c2=O)nn1-c1ccccc1Cl", "note": "[Example 83, 5-(4-Chlorophenyl)-2-({1-(2-chlorophenyl)-5-[(1R)-1-hydroxyethyl]-1H-1,2,4-triazol-3-yl}-methyl)-4-[(2S)-3,3,3-trifluoro-2-hydroxypropyl]-2,4-dihydro-3H-1,2,4-triazol-3-one]", "values": [{"measurement": "Urinary volume [% vs. control = 100%]", "setting": "Wistar rats; dosage p.o. 3.0 mg/kg", "result": 1094, "unit": "% vs. control = 100%"}]}]}
